In US9382249B2, “Antitumor aza-benzo [f] azulen derivative, method for preparing same, and use thereof” (TIANYI BIOSCIENCE CO. LTD., priority 2012, dated 2016):

Tests used:
[1] = tested on: human gastric cancer MGC-803 tumor transplanted in nude mice; test: Growth inhibition of human gastric cancer MGC-803 tumor transplanted in nude mice; assay type: in vivo; settings: MGC-803 xenograft
Description: (§1) Method: 1. Establishing model of human gastric cancer MGC-803 tumor transplanted in nude mice, and animal groups: MGC-803 cell lines were cultured with medium RPMI1640 containing 10% fetal bovine serum. MGC-803 cells at logarithmic growth phase were trypsinized into single cell suspension. Final concentration of the cell was adjusted with medium RPMI1640 into 5×10^7/mL. 0.2 mL of cell suspension was injected subcutaneously into right anterior axillary of each nude mouse. 8 days after inoculation, when the tumor size grew to about 110 mm^3, the mice were randomized into five groups according to tumor size and body weight of mice, with 10 mice in each group. 5 groups were: a blank control group (purified water containing 0.5% of hydroxypropyl methylcellulose and 0.1% Tween 80, administered through gavage, once per day, for […]), 4, 6 and 9 mg/kg of I-2 treatment group (administered through gavage, once per day, for 17 days), and 100 mg/kg cyclophosphamide group (by intraperitoneal injection, once every 7 days, for 3 weeks), respectively.
(§2) 2. Growth situation of subcutaneous human gastric cancer tumor transplanted in nude mice and inhibitory effect was observed: from the dosing day, body weight of nude mouse as well as the maximum diameter (D) and minimum diameter (d) of tumor were observed every 3-4 days. The tumor size was calculated following the formula V=Dd^2/2, and the tumor growth curve was plotted. At the end of the experiment, the tumor was dissected in whole and picture was taken. Growth rate of nude mouse body weight before and after treatment=[(body weight after treatment−body weight before treatment)/body weight before treatment]*100%; tumor inhibition rate=[1−(tumor size after treatment in the experiment group−tumor size before treatment in the experiment group)/(tumor size after treatment in the control group−tumor size before treatment in the control group)]*100%

[2] = tested on: human gastric cancer SGC-7901 tumor transplanted in nude mice; test: Growth inhibition of human gastric cancer SGC-7901 tumor transplanted in nude mice; assay type: in vivo; settings: SGC-7901 xenograft
Description: (§3) Method: 1. Establishing model of human gastric cancer SGC-7901 tumor transplanted in nude mice, and animal groups: SGC_7901 cell lines were cultured with medium RPMI1640 containing 10% fetal bovine serum. SGC-7901 cells at logarithmic growth phase were trypsinized into single cell suspension. Final concentration of the cell was adjusted with medium RPMI1640 into 5×10^7/mL. 0.2 mL of cell suspension was injected subcutaneously into right anterior axillary of each nude mouse. 14 days after inoculation, when the tumor size grew to about 130 to 180 mm^3, the nude mice were randomized into five groups according to tumor size and body weight of mice, with 8-12 mice in each group. 5 groups were: a blank control group (purified water containing 0.5% of hydroxypropyl methylcellulose and 0.1% Tween 80, administered through gavage, each at morning and evening, for 10 days), 12.5, 25 and 50 mg/kg of I-1 treatment group (administered through gavage, each at morning and evening, for 10 days), and 100 mg/kg cyclophosphamide (CYP) group (by intraperitoneal injection, once every 5 days, for 2 weeks), respectively.
as §2, with “two” for “3-4”

[3] = Body weight change / toxicity in SGC-7901 tumor-bearing nude mice
Description: as §3
(§4) 2. […] The tumor size was calculated following the formula V=Dd^2/2, and the tumor growth curve was plotted. […]

[4] = tested on: human gastric cancer cell line SGC-7901; test: MTT growth inhibition assay, SGC-7901; assay type: cell-based; settings: SGC-7901, MTT, 96 hours incubation
Description: (§5) Method: Cells in the logarithmic growth phase (human gastric cancer cell lines SGC-7901, MGC-803, human oral epidermoid carcinoma cell line KB, human non-small cell lung cancer cell line A549, human breast ductal cancer cell line BT-549, human prostate cancer cell line PC-3, human colon cancer cell line HT-29, human brain astrocytic glioblastoma cell line U-87MG and a human hepatoma cell line SMMC-7721) at a concentrations of 1.5×10^4 were inoculated in 96 well plates. The original medium was removed after cell culture for 24 hours until adherence. The tests included blank control group and drug treatment group. For the control group, the medium was replaced with 1640 medium containing 10% fetal bovine serum; for the drug treatment group, the medium was replaced with medium containing compounds I-1, I-2 and I-3 to be tested at concentrations of 100 μM, 50 μM, 10 μM, 1 μM, 0.1 μM, 0.01 μM, 0.001 μM, 0.0001 μM and 0.00001 μM. After incubation for 96 hours add MTT at a concentration of 5 mg/mL, and resume incubation in a CO2 incubator for 4 hours. And then along the upper part of the culture solution, remove 100 μL, of supernatant, add 100 μL of DMSO, allow to place at a dark for 10 minutes. With a microplate reader (a product from Sunrise company), absorbance was measured (at wavelength 570 nm), and cell survival situation is calculated based on the absorbance. Six duplicated wells were set for each treatment. Cell viability (%)=ΔODdrug treatment/ΔODblank control×100.

[5] = tested on: human brain astrocytic glioblastoma cell line U-87MG; test: MTT growth inhibition assay, U-87MG; assay type: cell-based; settings: U-89MG [sic], 96 hours incubation
Description: as §5

[6] = tested on: human prostate cancer cell line PC-3; test: MTT growth inhibition assay, PC-3; assay type: cell-based; settings: PC-3, MTT, 96 hours incubation
Description: as §5

[7] = tested on: human breast ductal cancer cell line BT-549; test: MTT growth inhibition assay, BT-549; assay type: cell-based; settings: BT-549, MTT, 96 hours incubation
Description: as §5

[8] = tested on: human colon cancer cell line HT-29; test: MTT growth inhibition assay, HT-29; assay type: cell-based; settings: HT-29, MTT, 96 hours incubation
Description: as §5

[9] = tested on: human oral epidermoid carcinoma cell line KB; test: MTT growth inhibition assay, KB; assay type: cell-based; settings: 96 hours incubation
Description: as §5

[10] = tested on: human gastric cancer cell line MGC-803; test: MTT growth inhibition assay, MGC-803; assay type: cell-based; settings: MGC-803, MTT, 96 hours incubation
Description: as §5

[11] = tested on: human non-small cell lung cancer cell line A549; test: MTT growth inhibition assay, A549; assay type: cell-based; settings: 96 hours incubation
Description: as §5

[12] = tested on: a variety of human tumor cell lines; test: Growth inhibition on various strains of human tumor cell with MTT assay (overall statements); assay type: cell-based; settings: in words
Description: as §5, with “Six duplicated wells were set for each treatment. Cell viability (%)=ΔODdrug treatment/ΔODblank control×100.” left out

[13] = tested on: human hepatoma cell line SMMC-7721; test: MTT growth inhibition assay, SMMC-7721; assay type: cell-based; settings: SMMC-7721, MTT, 96 hours incubation
Description: as §5

[14] = Body weight change / toxicity in MGC-803 tumor-bearing nude mice
Description: as §1, §4

SMILES | IC50 [4] [nM] | IC50 [5] [nM] | IC50 [6] [nM] | IC50 [7] [nM] | IC50 [8] [nM] | IC50 [9] [nM] | IC50 [10] [nM] | IC50 [11] [nM] | Inhibitory effect on the growth of a variety of human tumor cell lines [12] | IC50 [13] [nM] | further results
O=P1(N(CCCl)CCCl)NCCCO1 (centres unmarked) [CYP, cyclophosphamide, reference compound] | – | – | – | – | – | – | – | – | – | – | Tumor inhibition rate ([1]; 100 mg/kg, intraperitoneal injection, once every 7 days, for 3 weeks): 62.4%; Tumor inhibition rate ([2]; 100 mg/kg, intraperitoneal injection, once every 5 days, for 2 weeks): 39.5%
Cc1cc2c(cn1)C(c1ccccc1Cl)=Nc1c(n[nH]c1C)N2 [Compound I-1] | 290 ± 130 | 400 ± 20 | 1900 ± 390 | 390 ± 230 | 160 ± 40 | 1350 ± 50 | 980 ± 40 | 690 ± 240 | very significant inhibition | 140 ± 30 | Toxic side effect ([3]; 12.5, 25 and 50 mg/kg, gavage, twice daily, 10 days): negligible toxic side effect; Effect on weight gain of nude mouse ([3]; only for the highest dose of 50 mg/kg, FIG. 3): mild effect on weight gain; Tumor inhibition rate ([2]; 12.5 mg/kg, gavage, each at morning and evening, for 10 days): 67.5%; Tumor inhibition rate ([2]; 25 mg/kg, gavage, each at morning and evening, for 10 days): 83%; Tumor inhibition rate ([2]; 50 mg/kg, gavage, each at morning and evening, for 10 days): 88.6%
CCc1cc2c(cn1)C(c1ccccc1Cl)=Nc1c(n[nH]c1C)N2 [Compound I-2, 9-(2-chlorophenyl)-6-ethyl-1-methyl-2,4-dihydrogen-2,3,4,7,10-pentaaza-benzo [f] azulene] | 90 ± 10 | 60 ± 40 | 850 ± 100 | 70 ± 30 | 80 ± 10 | 620 ± 10 | 700 ± 20 | 250 ± 140 | very significant inhibition | 40 ± 10 | Tumor inhibition rate ([1]; 4 mg/kg, gavage, once per day, for 17 days): 72.5%; Tumor inhibition rate ([1]; 6 mg/kg, gavage, once per day, for 17 days): 97.3%; Tumor inhibition rate ([1]; 9 mg/kg, gavage, once per day, for 17 days): 100%; Toxic side effect ([14]; 4, 6 and 9 mg/kg, gavage, once per day, 17 days): negligible toxic side effect; Effect on weight gain of nude mouse ([14]; only for the highest dose of 9 mg/kg on treatment day 3-6, FIG. 6): mild effect on weight gain
Cc1cc2c(cn1)C(c1ccccc1F)=Nc1c(n[nH]c1C)N2 [Compound I-3] | 1630 ± 130 | 1940 ± 240 | 11300 ± 1300 | 1950 ± 230 | 740 ± 80 | 7270 ± 590 | 4860 ± 390 | 3250 ± 250 | – | 820 ± 190 | –
